Data reported in patent US20230338454A1, “FORSYTHIA SUSPENSA COMPONENT AND OPTIONAL PANAX GINSENG COMPONENT AND THE APPLICATION” (priority 2020, published 2023).
Like-named read-outs stand apart in the source and are kept apart here.

Columns and labels:
influenza virus [1] = assay type: in vivo, Kunming mice; details: for Lung index (x̅ ±S) / Lung index Inhibitory rate (%): 13.0 mg/kg/day by gavage, 5 days
[2] = tested on: respiratory syncytial virus (RSV); assay: Effect of drugs on viral cytopathic effect, effective antiviral rate (ER%); assay type: cell-based; details: Vero cells, 100TCID50, drug at maximum non-toxic concentration, 72 h, MTT
Coxsackievirus B3 (CVB3) = assay: as above; assay type: cell-based; details: Vero cells, 100TCID50, drug at maximum non-toxic concentration, 72 h, MTT
influenza virus [3] = assay type: in vivo, Kunming mice; details: 13.0 mg/kg/day by gavage, 5 days
[4] = tested on: Coxsackievirus A16 (CoxA16); assay: Effect of drugs on viral cytopathic effect, effective antiviral rate (ER%); assay type: cell-based; details: Vero cells, 100TCID50, drug at maximum non-toxic concentration, 72 h, MTT
Vero cells = assay: Cytotoxicity test of drugs on Vero cells (MTT); details: 72 h
[5] = tested on: fever induced by beer yeast; assay: Fever induced by beer yeast in rats; assay type: in vivo, Wistar rats; details: 10 mg/kg; for Body temperature change (%) (antipyretic percentage), time post-dose 1 h / Body temperature, time post-dose 1 h: 1 h post-dose; for Body temperature change (%) (antipyretic percentage), time post-dose 2 h / Body temperature, time post-dose 2 h: 2 h post-dose; for Body temperature change (%) (antipyretic percentage), time post-dose 3 h / Body temperature, time post-dose 3 h: 3 h post-dose; for Body temperature change (%) (antipyretic percentage), time post-dose 4 h / Body temperature, time post-dose 4 h: 4 h post-dose
enterovirus 71 (EV71) = assay: Effect of drugs on viral cytopathic effect, effective antiviral rate (ER%); assay type: cell-based; details: Vero cells, 100TCID50, drug at maximum non-toxic concentration, 72 h, MTT
[6] = tested on: sweat secretion of rat paw; assay: Sweat secretion of rat paw (staining method); assay type: in vivo, Wistar rats; details: of 10 rats; dose not printed, gavage
Source text: There are sweat glands on the plantar skin of rats, so the changes in sweat secretion can be observed by the purple reaction between the iodine-starch mixture and the sweat. Five hundred Wistar rats, half male and half female, weighing 120-150 g, were taken in the study. […] The rats were placed in a homemade rat-fixing bag to expose both hind limbs. The dirt on the right paw was gently scrubbed with a cotton swab dipped in absolute ethanol. Except for the pilocarpine solution, which was given by subcutaneous injection, other groups were administered by gavage. One hour after administration (30 min after administration in the pilocarpine group), the sweat secreted from the right paw of rats in each group was gently cleaned with a dry cotton swab before the study and during struggling. The right paw was coated with Wotan-[…] reagent A solution (dissolve 2 g of iodine in 100 mL of absolute ethanol) and then coated with Wotan-[…] reagent B solution (mix 50 g of soluble starch and 100 mL of Ricinus conununis oil well) after reagent A was fully absorbed. […] At the end of the test, a rank-sum test was used to analyze the differences among the groups.

parainfluenza virus [7] = assay type: in vivo, Kunming mice
Parainfluenza virus [8] = assay: Effect of drugs on viral cytopathic effect, effective antiviral rate (ER%); assay type: cell-based; details: Vero cells, 100TCID50, drug at maximum non-toxic concentration, 72 h, MTT
[9] = tested on: mouse splenic lymphocytes; assay: ConA-induced mouse splenic lymphocyte transformation test; assay type: in vivo, Kunming mice; details: 144 mg/kg; gavage once daily for 30 days; mice; ABSa-ABSb at 570 nm
Protocol: One hundred and fifty-two healthy male mice were subjected to acclimation for 4 days before they were randomly divided into 19 groups: the negative control group, positive control group, forsythin group, 20(R)-ginsenoside Rg3 group, high, middle and low dose groups of panax ginseng-forsythia suspensa composition. […] The drugs were given by gavage, once daily for 30 days, and the negative control group was given the same volume of water. At 1 h after the last dose, the spleens of animals of each group were aseptically excised to prepare splenocyte suspension. After diluting the splenocyte suspension to a concentration of 3×10^6 cells/mL, the splenocyte suspension was divided into 2 aliquots.Each of the aliquot was transferred into two 24-well culture plates at a volume of 1 mL/well followed by addition of 75 µL of ConA solution (a) was added to one well, and the other well was used as control (b). The wells were cultured at 37° C. for 72 h. Then, thiazolyl blue (MTT) was added 4 h before the end of the culture. After incubation, acidic isopropanol was added, and the absorbance (ABS) of each solution was measured at 570 nm after it was mixed well. The proliferativity was calculated using the formula: proliferativity = ABSa-ABSb. Each dose group of the test sample was compared with the negative control group.

Influenza virus [10] = assay: Effect of drugs on viral cytopathic effect, effective antiviral rate (ER%); assay type: cell-based
[11] = tested on: Herpes simplex virus type 1 (HSV-1); assay: as above; assay type: cell-based; details: Vero cells, 100TCID50, drug at maximum non-toxic concentration, 72 h, MTT
[12] = tested on: NK cells (YAC-1 target cells); assay: Determination of NK cell viability; assay type: in vivo, Kunming mice; details: 144 mg/kg; gavage once daily for 30 days; mice
Source text: One hundred and fifty-two healthy male mice were subjected to acclimation for 4 days before they were randomly divided into 19 groups: the negative control group, positive control group, forsythin group, 20(R)-ginsenoside Rg3 group, high, middle and low dose groups of panax ginseng-forsythia suspensa composition. […] The drugs were given by gavage, once daily for 30 days, and the negative control group was given the same volume of water. One hour after the last dose, the spleens of animals of each group were aseptically excised to prepare splenocyte suspension. […] Then, the concentration of splenocyte suspension was adjusted to 2×10^7 cells/mL. and the splenocyte suspension was added into a 96-well plate for culturing. […] A triplicate set of tubes was prepared for each of the above items. The 96-well plate was incubated at 37° C. in a 5% CO2 incubator for 4 h. After adding LDH matrix solution and 1 moL/L HCl, the solutions in each parallel well were combined, and the absorbance (ABS) was measured at 490 nm. The NK cell viability was calculated: NK cell viability (%) = (ABS reaction well -ABS natural release well)/(ABS maximum release well -ABS natural release well).

parainfluenza virus [13] = assay type: in vivo, Kunming mice; remark: listed apart in the source
[14] = mice infected with parainfluenza virus, 13.0 mg/kg/day by gavage, 5 days
[15] = […], 13.0 mg/kg/day by gavage, 5 days
[16] = mice infected with influenza virus
[17] = lung suspension, mice infected with influenza virus

Structure (SMILES)	Effective Antiviral Rates (ER%) RSV [2]	Effective Antiviral Rates (ER%) CVB3 (Coxsackievirus B3 (CVB3))	Effective Antiviral Rates (ER%) CoxA16 [4]	Half toxic concentration (TC50) (Vero cells) [µg/mL]	Maximum non-toxic concentration (TC0) (Vero cells) [g/L]	Body temperature change (%) (antipyretic percentage), time post-dose 1 h [5]	Body temperature, time post-dose 1 h [5] [°C]	Body temperature change (%) (antipyretic percentage), time post-dose 2 h [5]	Body temperature, time post-dose 2 h [5] [°C]	Body temperature change (%) (antipyretic percentage), time post-dose 3 h [5]	Body temperature, time post-dose 3 h [5] [°C]	Body temperature change (%) (antipyretic percentage), time post-dose 4 h [5]	Body temperature, time post-dose 4 h [5] [°C]	Effective Antiviral Rates (ER%) EV71 (enterovirus 71 (EV71))	Number of animals with sweat spots of each grade at 1 min after application of solution B: grade + [6] [animals]	Number of animals with sweat spots of each grade at 1 min after application of solution B: grade ++ [6] [animals]	Number of animals with sweat spots of each grade at 1 min after application of solution B: grade +++ [6] [animals]	Number of animals with sweat spots of each grade at 1 min after application of solution B: grade +++ (fifth grade column) [6] [animals]	Number of animals with sweat spots of each grade at 1 min after application of solution B: grade - [6] [animals]	Number of animals with sweat spots of each grade at 5 min after application of solution B: grade + [6] [animals]	other results
CC(C)=CCC[C@](C)(O)[C@H]1CC[C@]2(C)[C@@H]1[C@H](O)C[C@@H]1[C@@]3(C)CC[C@H](O[C@@H]4O[C@H](CO)[C@@H](O)[C@H](O)[C@H]4O[C@@H]4O[C@H](CO)[C@@H](O)[C@H](O)[C@H]4O)C(C)(C)[C@@H]3CC[C@]12C [20(R)-Ginsenoside Rg3, 20(R)-ginsenoside Rg3]	79.42^∗∗ %	53.75%	52.33%	310	0.0048	-0.3±0.41	39.31±0.48	-0.69±0.93^∗ %	39.04±0.45	-1.03±1.18^∗ %	38.91±0.40	-1.55±1.23^∗ %	38.70±0.31	74.66^∗∗ %	1	3	3	3	0	1	Lung index (x̅ ±S) (influenza virus [1]; […]): 1.302±0.046; Lung index Inhibitory rate (%) (influenza virus [1]; […]): 12.51%; Lung index compared with the infection model group, in words (influenza virus [1]; mouse, in vivo): decreased significantly; Hemagglutinin titer (InX) (influenza virus [3]; […]): 22.61±1.059; Inhibitory rate (%) of hemagglutination titer (influenza virus [3]; […]): 30.22%; Number of animals with sweat spots of each grade at 5 min after application of solution B: grade ++ [6]: 3 animals; Number of animals with sweat spots of each grade at 5 min after application of solution B: grade +++ [6]: 2 animals; Number of animals with sweat spots of each grade at 5 min after application of solution B: grade +++ (fifth grade column) [6]: 4 animals; Number of animals with sweat spots of each grade at 5 min after application of solution B: grade - [6]: 0 animals; Lung index (x̅ ±S) (parainfluenza virus [7]; [14]): 1.357±0.050; Lung index Inhibitory rate (%) (parainfluenza virus [7]; [14]): 14.69%; Lung index compared with the infection model group, in words (parainfluenza virus [7]; mice infected with parainfluenza virus, P < 0.05 or P < 0.01): decreased significantly; Effective Antiviral Rates (ER%) Parainfluenza virus (Parainfluenza virus [8]): 82.21^∗∗ %; Proliferation ability (×10^-2) [9]: 23.9±11.70 ×10^-2; Effective Antiviral Rates (ER%) Influenza virus (Influenza virus [10]): 74.06^∗∗ %; Effective Antiviral Rates (ER%) HSV-I [11]: 83.61^∗∗ %; NK cell viability (%) [12]: 37.34±7.21%; Hemagglutinin titer (InX) (parainfluenza virus [13]; [15]): 23.79±1.072; Inhibitory rate (%) of hemagglutination titer (parainfluenza virus [13]; [15]): 28.15%
COc1ccc([C@H]2OCC3C2CO[C@H]3c2ccc(O[C@@H]3OC(CO)[C@@H](O)[C@H](O)C3O)c(OC)c2)cc1OC (stereo partly shown) [Forsythin]	80.40^∗∗ %	75.27^∗∗ %	75.08^∗∗ %	550	0.0066	-0.60±0.39	39.13±0.52	-0.92±0.93^∗∗ %	38.77±0.42	-1.29±1.18^∗ %	38.63±0.40	-1.70±1.23^∗ %	38.46±0.31	84.85^∗∗ %	2	2	2	4	0	1	Lung index (x̅ ±S) (influenza virus [1]; [16]): 1.280±0.040; Lung index Inhibitory rate (%) (influenza virus [1]; [16]): 14.00%; Hemagglutinin titer (InX) (influenza virus [3]; [17]): 22.06±1.120; Inhibitory rate (%) of hemagglutination titer (influenza virus [3]; [17]): 31.90%; Number of animals with sweat spots of each grade at 5 min after application of solution B: grade ++ [6]: 2 animals; Number of animals with sweat spots of each grade at 5 min after application of solution B: grade +++ [6]: 2 animals; Number of animals with sweat spots of each grade at 5 min after application of solution B: grade +++ (fifth grade column) [6]: 5 animals; Number of animals with sweat spots of each grade at 5 min after application of solution B: grade - [6]: 0 animals; Lung index (x̅ ±S) (parainfluenza virus [7]; mouse, in vivo, 13 mg/kg/day): 1.335±0.062; Lung index Inhibitory rate (%) (parainfluenza virus [7]; mouse, in vivo, 13 mg/kg/day): 16.10%; Effective Antiviral Rates (ER%) Parainfluenza virus (Parainfluenza virus [8]): 84.96^∗∗ %; Proliferation ability (×10^-2) [9]: 28.66±12.63 ×10^-2; Effective Antiviral Rates (ER%) Influenza virus (Influenza virus [10]; Vero cells, 100TCID50, drug at maximum non-toxic concentration, 72 h, MTT): 75.38^∗∗ %; Effective Antiviral Rates (ER%) HSV-I [11]: 85.00^∗∗ %; NK cell viability (%) [12]: 41.86±7.24%; Hemagglutinin titer (InX) (parainfluenza virus [13]; mouse, in vivo, 13 mg/kg/day): 23.17±1.059; Inhibitory rate (%) of hemagglutination titer (parainfluenza virus [13]; mouse, in vivo, 13 mg/kg/day): 30.01%
